Experimental data taken from PubChem BioAssay AID330 (DTP/NCI, 2004).
Values joined by “and” are separate entries in the source; they are usually repeats but may differ in a detail not shown here. Equal entries are not always repeated. Toxic doses and inconclusive results are not listed. The calls were made as follows: active = survival T/C of 150% or more; inactive = T/C below 125% in these data.

Test system: P388 leukemia ip, CD2F1 mice, survival T/C
Assay: NCI In Vivo Anticancer Drug Screen. Data for tumor model P388 Leukemia (intraperitoneal) in CD2F1 (CDF1) mice
Settings: endpoint: median survival time, higher = longer survival
Method in brief: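 Mice carrying the transplanted tumor received test compound or vehicle. Survival was recorded in each group, and the value is the treated-group measurement divided by that of the vehicle-treated control group.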

[1] = dose: 12.5 mg/kg/injection, schedule: Q01DX009 (ip), vehicle: saline with Tween-80
[2] = dose: 25.0 mg/kg/injection, schedule: Q01DX009 (ip), vehicle: saline with Tween-80
[3] = dose: 50.0 mg/kg/injection, schedule: Q01DX009 (ip), vehicle: saline with Tween-80
[4] = dose: 12.5 mg/kg/injection, schedule: Q01DX009 (ip), vehicle: other
[5] = dose: 25.0 mg/kg/injection, schedule: Q01DX009 (ip), vehicle: other
[6] = dose: 50.0 mg/kg/injection, schedule: Q01DX009 (ip), vehicle: other
[7] = dose: 100.0 mg/kg/injection, schedule: Q01DX009 (ip), vehicle: other
[8] = dose: 200.0 mg/kg/injection, schedule: Q01DX009 (ip), vehicle: other

Measured: T/C

C[N+](C)(C)CN1C(=O)c2ccccc2C1=O
inactive: dose: 50.0 mg/kg/injection, schedule: Q04DX003 (ip), vehicle: saline 100 % of control | dose: 100.0 mg/kg/injection, schedule: Q04DX003 (ip), vehicle: saline 104 % of control | dose: 200.0 mg/kg/injection, schedule: Q04DX003 (ip), vehicle: saline 95 % of control

COc1nc(Nc2ccccc2OC)nc(OC)n1
inactive: dose: 50.0 mg/kg/injection, schedule: Q01DX009 (ip), vehicle: Klucel (hydroxypropylcellulose) (HPC) 101 % of control | dose: 100.0 mg/kg/injection, schedule: Q01DX009 (ip), vehicle: Klucel (hydroxypropylcellulose) (HPC) 99 % of control | dose: 200.0 mg/kg/injection, schedule: Q01DX009 (ip), vehicle: Klucel (hydroxypropylcellulose) (HPC) 100 % of control

COC(=O)c1cccc2c([N+](=O)[O-])c(NC(C)=O)cc(C(=O)OC)c12
inactive: dose: 60.0 mg/kg/injection, schedule: Q01DX005 (ip), vehicle: saline with Tween-80 100 % of control | dose: 120.0 mg/kg/injection, schedule: Q01DX005 (ip), vehicle: saline with Tween-80 104 % of control | dose: 240.0 mg/kg/injection, schedule: Q01DX005 (ip), vehicle: saline with Tween-80 100 % of control

COc1ccc(-c2nc3c(=O)[nH]c(=O)n(C)c3nc2-c2ccc(OC)c(OC)c2)cc1OC
inactive: dose: 100.0 mg/kg/injection, schedule: Q04DX002 (ip), vehicle: Klucel (hydroxypropylcellulose) (HPC) 97 % of control | dose: 200.0 mg/kg/injection, schedule: Q04DX002 (ip), vehicle: Klucel (hydroxypropylcellulose) (HPC) 100 % of control | dose: 400.0 mg/kg/injection, schedule: Q04DX002 (ip), vehicle: Klucel (hydroxypropylcellulose) (HPC) 100 % of control

CCN(CC)[P+](C1=C(Cl)C(=O)C(Cl)=C(Cl)C1=O)(N(CC)CC)N(CC)CC
inactive: [1] 105 % of control | [2] 93 % of control | [3] 103 % of control

COc1ccc([N+](=O)[O-])c(O)c1OC
inactive: [4] 94 % of control | [5] 96 % of control | [6] 97 % of control | [7] 94 % of control | [8] 96 % of control

CCCCCCC(=O)/C=C/c1cccc(OCc2ccc([N+](=O)[O-])cc2)c1
inactive: [1] 86 % of control | [2] 89 % of control | [3] 87 % of control and 91 % of control | dose: 200.0 mg/kg/injection, schedule: Q01DX009 (ip), vehicle: saline with Tween-80 88 % of control

O=C(Cc1ccccc1)N1CCc2cc3c(cc2C1Cc1cc2c(cc1Br)OCO2)OCO3 (configuration not stated)
inactive: dose: 12.5 mg/kg/injection, schedule: Q01DX001 (ip), vehicle: saline + alcohol 98 % of control | dose: 25.0 mg/kg/injection, schedule: Q01DX001 (ip), vehicle: saline + alcohol 99 % of control | dose: 50.0 mg/kg/injection, schedule: Q01DX001 (ip), vehicle: saline + alcohol 100 % of control

CC(=O)O.[In]
inactive: dose: 0.1 mg/mouse/injection, schedule: Q01DX020 (oral), vehicle: saline with Tween-80 100 % of control

COc1cc2c(cc1OC)C(=O)c1ncccc1C2=O
inactive: [4] 104 % of control | [5] 100 % of control | [6] 99 % of control | [7] 90 % of control | [8] 89 % of control

O=C1CSC(=S)N1c1ccc(F)cc1
inactive: dose: 50.0 mg/kg/injection, schedule: Q01DX009 (ip), vehicle: suspension in saline 106 % of control | dose: 100.0 mg/kg/injection, schedule: Q01DX009 (ip), vehicle: suspension in saline 100 % of control | dose: 200.0 mg/kg/injection, schedule: Q01DX009 (ip), vehicle: suspension in saline 90 % of control

Oc1ccc2ccccc2c1/C=N/N=c1\[nH][nH]/c(=N\N=C\c2c(O)ccc3ccccc23)c2ccccc12
inactive: dose: 50.0 mg/kg/injection, schedule: Q01DX005 (ip), vehicle: saline with Tween-80 98 % of control | dose: 100.0 mg/kg/injection, schedule: Q01DX005 (ip), vehicle: saline with Tween-80 97 % of control | dose: 200.0 mg/kg/injection, schedule: Q01DX005 (ip), vehicle: saline with Tween-80 99 % of control

C[C@@H]1C[C@@H](O)[C@]2(O)O[C@@H]3C[C@@]4(C=O)[C@@H](CC=C5[C@@H]4CC[C@]4(C)C(C6=CC(=O)OC6)CC[C@]54O)C[C@H]3O[C@@H]2O1 (some centres not stated)
inactive: dose: 1.75 mg/kg/injection, schedule: Q01DX005 (ip), vehicle: saline with Tween-80 94 % of control | dose: 3.5 mg/kg/injection, schedule: Q01DX005 (ip), vehicle: saline with Tween-80 100 % of control | dose: 7.0 mg/kg/injection, schedule: Q01DX005 (ip), vehicle: saline with Tween-80 98 % of control
